Measurements as given in BindingDB's records for doi:10.1016/S0960-894X(97)00285-0 (1997).
Where a name gives a salt, the structure may show the parent alone.

Molecular target: Prostate-specific antigen (Homo sapiens) (UniProt P07288)
Test: Concentration required for inhibition of 50% of the cleavage of para-nitroanilide from MeO-Suc-Arg-Pro-Tyr-pNA.HCl by Prostate specific antigen PSA

Chain of Prostate-specific antigen (Homo sapiens) (P07288 whole entry, looked up): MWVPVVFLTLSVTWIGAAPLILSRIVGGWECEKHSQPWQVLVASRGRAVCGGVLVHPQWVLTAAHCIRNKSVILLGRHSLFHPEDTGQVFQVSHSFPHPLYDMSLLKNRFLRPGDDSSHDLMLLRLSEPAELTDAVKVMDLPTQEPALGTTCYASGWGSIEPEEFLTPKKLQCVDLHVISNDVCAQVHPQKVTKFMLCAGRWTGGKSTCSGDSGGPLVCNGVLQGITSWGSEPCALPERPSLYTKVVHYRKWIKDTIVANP

| SMILES | IC50 [nM] |
| --- | --- |
| O=C(O)c1ccc(COC(=O)[C@@H]2[C@H](Cc3ccccc3)C(=O)N2C(=O)Cc2cccc(C(=O)O)c2)cc1 [3-Benzyl-1-[2-(3-carboxy-phenyl)-acetyl]-4-oxo-azetidine-2-carboxylic acid 4-carboxy-benzyl ester] | > 30000 |
| NCc1ccc(COC(=O)[C@@H]2[C@H](Cc3ccccc3)C(=O)N2C(=O)Cc2cccc(C(=O)O)c2)cc1 [(2S,3S)-3-Benzyl-1-[2-(3-carboxy-phenyl)-acetyl]-4-oxo-azetidine-2-carboxylic acid 4-aminomethyl-benzyl ester; TFA] | 1340 |
